US9618513B2, “Compositions and methods for detecting and treating colorectal cancer” (The Regents of the University of Michigan, priority 2014, dated 2017)
Entries after “also recorded” stand apart in the source; their conditions may differ.

Assays:
EZH2, SUZ12, EED, CBX8 = assay: PcG / PRC2 component expression (real-time PCR, western blot); assay type: cell-based, human
Procedure: A, C. Cell proliferation was analyzed using H^3 Thymidine Incorporation. B. The level of total H3K79m2 and H3K27me3 was measured by Western Blot. D. PcG proteins of EZH2, EED, SUZ12 was increased with IL-22(20 ng/ml) treatment. E. EZH2, SUZ12 and EED was detected by Western Blot after IL-22 treated for 24 h or 48 h. F. EZH2 inhibitor DZNep reduced cell proliferation. G.H. The efficiency of EZH2 and SUZ12 knock down was tested by Western Blot. I.J. Cell proliferation was analyzed using H^3 Thymidine Incorporation after knock down of EZH2 and SUZ12. K.L. Relative expression of cyclin-dependent kinase inhibitors (p16 and p18) in shEZH2, shSUZ12 and Dznep treated cells after IL-22 treatment. M. The level of H3K27me3 in the promoter of p16 and p18 was analyzed by ChIP assay.
A. The protein level of phosphorylated STAT3, STAT1 and STATS were activated by IL-22. B. The effect of STAT3 knock down. C. The effect of IL-22 on cell proliferation was analyzed using H^3 Thymidine Incorporation in Stat3 knock down cells. D. Knock down of STAT3 reduced the expression of EZH2 and SUZ12. E. Based on the ENCODE STAT3-ChIP-Seq data base, STAT3 occupancy on the promoter areas of SUZ12 and EED is shown. F. SUZ12/EED DNA was detected by ChIP assay using an antibody against STAT3, c-fos was used as a positive control.
The mRNAs were quantified by real-time RT-PCR. SYBR Green Master Mix was used to detect fluorescence. Relative expression was calculated according to the Ct value with normalization to GAPDH.
Western Blot assay was performed with specific antibodies against human Stat3, phosphorylate Stat3 (Cell Signaling), Sox2, SUZ12(Santa Cruz biotechnology), EZH2 (Abcam), H3K27me3 and H3K79me2 (Millipore).

STAT3 = assay: STAT phosphorylation by western blotting; assay type: cell-based, human; conditions: colon cancer cells treated with IL-22
Procedure: (A) IL-22 induced STAT3 phosphorylation. Colon cancer cells were treated with IL-22 for different time points. The protein levels of phosphorylated STAT3 and STAT3 were detected by Western blotting. (B, C) IL-22 induced colon cancer spheres via STAT3. Sphere assay was performed with shSTAT3 colon cancer cells in the presence of IL-22. Results were shown as sphere images (b) and the mean numbers of spheres in triplicate (c). (n=5. P<0.01). (D-F) IL-22 stimulated colon cancer sternness gene expression via STAT3. Colon cancer cells expressing shSTAT3 or scrambled vector were cultured with IL-22. Stem cell core gene mRNAs were detected by real-time PCR after 6 hours (n=5, *P<0.05). (G, H) IL-22 causes STAT3 occupancy on SOX2 promoter areas. STAT3-ChIP assay was performed in DLD-1 cells cultured with or without IL-22. One of at least three experiments is shown.
A. The protein level of phosphorylated STAT3, STAT1 and STATS were activated by IL-22. B. The effect of STAT3 knock down. C. The effect of IL-22 on cell proliferation was analyzed using H^3 Thymidine Incorporation in Stat3 knock down cells. D. Knock down of STAT3 reduced the expression of EZH2 and SUZ12. E. Based on the ENCODE STAT3-ChIP-Seq data base, STAT3 occupancy on the promoter areas of SUZ12 and EED is shown. F. SUZ12/EED DNA was detected by ChIP assay using an antibody against STAT3, c-fos was used as a positive control. […]

Substance: IL-22: recombinant IL-22 (R&D systems), cytokine interleukin-22
- protein level of EZH2 and SUZ12 (EZH2, SUZ12, EED, CBX8; FIG. 19D): up regulate
- CBX8 expression (EZH2, SUZ12, EED, CBX8; IL-22 20 ng/ml): increased
- mRNA expression level of EED (EZH2, SUZ12, EED, CBX8; IL-22 20 ng/ml): increased to a lesser extent
- mRNA expression level of SUZ12 (EZH2, SUZ12, EED, CBX8; IL-22 20 ng/ml): significantly increase
- EED and SUZ12 expression (western blotting) (EZH2, SUZ12, EED, CBX8; IL-22 24 h or 48 h): increased to a lesser extent
- EZH2 expression (western blotting) (EZH2, SUZ12, EED, CBX8; IL-22 24 h or 48 h): increased
- STAT3 activation (phosphorylation) (STAT3): activated; also recorded: activated STAT3 strongly
